Experimental data taken from patent US6617122B1, “Process for identifying modulators of ABC1 activity” (Xenon Genetics, Inc., priority 1999, dated 2003).

How the values were obtained:
[1] = test system: cholesterol efflux; conditions: cited from earlier work
[2] = test system: ABC1; conditions: cited from earlier work
[3] = target: ABC1 (Homo sapiens, UniProt O95477); conditions: cited from earlier work
[4] = test system: ABC1 mRNA; experiment: ABC1 mRNA upon cholesterol loading; format: cell-based

Sequence of ABC1 (Homo sapiens, UniProt O95477) (O95477 whole entry): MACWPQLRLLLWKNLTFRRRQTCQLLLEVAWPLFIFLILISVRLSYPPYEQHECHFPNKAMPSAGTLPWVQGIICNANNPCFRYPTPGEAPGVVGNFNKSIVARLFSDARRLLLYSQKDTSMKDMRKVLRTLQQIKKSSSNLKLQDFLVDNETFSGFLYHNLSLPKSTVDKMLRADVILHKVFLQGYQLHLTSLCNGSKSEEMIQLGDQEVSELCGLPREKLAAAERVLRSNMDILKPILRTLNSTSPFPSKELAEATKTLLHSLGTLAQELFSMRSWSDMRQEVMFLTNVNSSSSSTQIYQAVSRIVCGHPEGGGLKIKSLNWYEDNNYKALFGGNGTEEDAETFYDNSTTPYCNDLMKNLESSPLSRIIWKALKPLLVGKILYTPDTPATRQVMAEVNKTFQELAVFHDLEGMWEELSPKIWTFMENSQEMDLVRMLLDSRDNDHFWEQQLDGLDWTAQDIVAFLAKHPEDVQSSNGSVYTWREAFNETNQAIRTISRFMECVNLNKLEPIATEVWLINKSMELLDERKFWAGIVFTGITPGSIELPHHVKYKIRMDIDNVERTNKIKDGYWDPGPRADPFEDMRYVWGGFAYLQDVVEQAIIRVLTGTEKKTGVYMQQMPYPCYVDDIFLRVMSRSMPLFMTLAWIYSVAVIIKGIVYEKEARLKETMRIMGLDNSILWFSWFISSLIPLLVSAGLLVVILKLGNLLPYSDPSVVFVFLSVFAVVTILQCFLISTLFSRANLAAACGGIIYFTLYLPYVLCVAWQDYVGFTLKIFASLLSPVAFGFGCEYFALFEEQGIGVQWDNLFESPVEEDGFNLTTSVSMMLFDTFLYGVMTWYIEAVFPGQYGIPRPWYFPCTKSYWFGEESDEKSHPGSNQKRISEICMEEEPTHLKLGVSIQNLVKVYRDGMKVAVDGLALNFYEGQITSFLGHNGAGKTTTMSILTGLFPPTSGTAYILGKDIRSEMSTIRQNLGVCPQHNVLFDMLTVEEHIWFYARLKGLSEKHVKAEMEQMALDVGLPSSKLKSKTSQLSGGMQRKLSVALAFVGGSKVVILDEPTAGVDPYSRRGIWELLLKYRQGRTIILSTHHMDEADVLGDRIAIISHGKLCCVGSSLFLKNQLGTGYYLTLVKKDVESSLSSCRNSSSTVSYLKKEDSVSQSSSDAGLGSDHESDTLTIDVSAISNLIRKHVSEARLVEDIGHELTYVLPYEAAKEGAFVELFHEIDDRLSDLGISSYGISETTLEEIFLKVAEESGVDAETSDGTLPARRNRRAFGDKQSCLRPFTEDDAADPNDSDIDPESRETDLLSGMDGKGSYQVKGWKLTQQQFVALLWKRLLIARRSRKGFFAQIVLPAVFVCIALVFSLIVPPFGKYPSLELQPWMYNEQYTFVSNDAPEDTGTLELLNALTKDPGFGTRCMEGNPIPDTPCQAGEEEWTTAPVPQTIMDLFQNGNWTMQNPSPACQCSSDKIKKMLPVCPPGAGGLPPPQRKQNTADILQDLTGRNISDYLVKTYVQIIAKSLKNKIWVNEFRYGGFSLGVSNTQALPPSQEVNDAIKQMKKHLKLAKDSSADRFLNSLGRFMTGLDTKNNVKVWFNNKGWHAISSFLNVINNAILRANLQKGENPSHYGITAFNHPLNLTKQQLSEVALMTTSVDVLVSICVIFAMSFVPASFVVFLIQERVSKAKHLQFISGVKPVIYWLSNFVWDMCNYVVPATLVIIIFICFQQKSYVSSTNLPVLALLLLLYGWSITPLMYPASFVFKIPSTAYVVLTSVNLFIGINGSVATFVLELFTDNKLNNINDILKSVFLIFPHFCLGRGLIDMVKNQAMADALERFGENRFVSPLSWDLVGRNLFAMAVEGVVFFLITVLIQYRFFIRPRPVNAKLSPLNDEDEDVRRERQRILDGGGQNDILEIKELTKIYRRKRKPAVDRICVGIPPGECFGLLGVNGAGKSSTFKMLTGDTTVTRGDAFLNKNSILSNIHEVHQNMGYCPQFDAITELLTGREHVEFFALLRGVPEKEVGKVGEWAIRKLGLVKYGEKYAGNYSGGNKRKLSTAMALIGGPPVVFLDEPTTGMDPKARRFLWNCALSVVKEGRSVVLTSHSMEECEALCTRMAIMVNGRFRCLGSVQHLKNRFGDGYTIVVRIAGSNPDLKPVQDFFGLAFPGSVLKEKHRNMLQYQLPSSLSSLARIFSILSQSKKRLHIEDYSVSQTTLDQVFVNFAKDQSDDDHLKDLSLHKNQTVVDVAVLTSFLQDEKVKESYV

Row | Compound | inhibition of ABC1 [2] | upregulation of ABC1 expression or biological activity [3] | further results
1 | C[C@H]1CCC/C=C/[C@@H]2C[C@H](O)C[C@H]2[C@H](O)/C=C/C(=O)O1 [Brefeldin] |  |  | cholesterol efflux [1]: significantly inhibits cholesterol efflux
2 | O=S(=O)(O)c1cc(N=C=S)ccc1C=Cc1ccc(N=C=S)cc1S(=O)(=O)O [DIDS] | inhibit |  | 
3 | CC(C)Cn1c(=O)n(C)c(=O)c2[nH]cnc21 [IBMX1] |  | upregulate | 
4 | CC(C)CCC[C@@H](C)[C@H]1CC[C@H]2[C@@H]3CC=C4C[C@@H](O)CC[C@]4(C)[C@H]3CC[C@]12C [cholesterol] |  |  | increase of ABC1 mRNA [4]: approximately 8 fold
5 | O=C(O)c1ccccc1Nc1ccccc1 [diphenylamine-2-carbonic acid] | inhibit |  | 
6 | O=C(O)c1ccccc1Nc1cccc(C(F)(F)F)c1 [flufenamic acid] | inhibit |  | 
7 | COc1ccc(Cl)cc1C(=O)NCCc1ccc(S(=O)(=O)NC(=O)NC2CCCCC2)cc1 [glibenclamide] | inhibit |  | 
8 | C=C1[C@@H](O)[C@@H]2O[C@]3(CC[C@H](/C=C/[C@@H](C)[C@@H]4CC(C)=C[C@@]5(O[C@H](C[C@@](C)(O)C(=O)O)CC[C@H]5O)O4)O3)CC[C@H]2O[C@@H]1[C@@H](O)C[C@H](C)[C@H]1O[C@@]2(CCCCO2)CC[C@H]1C [okadaic acid] |  | upregulate | 
9 | O=C1OC(c2ccc(O)c(S(=O)(=O)O)c2)(c2ccc(O)c(S(=O)(=O)O)c2)c2c(Br)c(Br)c(Br)c(Br)c21 [sulfobromophthalein] | inhibit |  | 
10 | [O]=[V]([O-])([O-])[O-] [vanadate] |  | upregulate | 
